Laboratory results taken from paper PMC10674233, “Design, Synthesis, In Vitro, and In Silico Studies of New N^5-Substituted-pyrazolo[3,4-d]pyrimidinone Derivatives as Anticancer CDK2 Inhibitors” (Pharmaceuticals, 2023).

What was measured:
HCT116 cells = assay: MTT antiproliferative assay, HCT116 cells; assay type: cell-based; details: Homo sapiens, HCT-116, HCT116 CRC cell line, triplicate, read-out: IC50 ± SD HCT116
CDK2/CyclinA2 = biological target: T1, CDK2/CyclinA2 (Homo sapiens, UniProt P24941); assay: In vitro enzymatic CDK2 inhibition assay (Kinase-Glo luminescence kit); assay type: biochemical; details: triplicate; read-out: CDK2 Inhibition IC50 ± SD
T1 construct: purchased BPS Bioscience Inc. (San Diego, CA, USA)
Protocol: . […]. In vitro evaluation of CDK2 inhibition was determined using a commercially available assay kit from BPS Bioscience Inc. (San Diego, CA, USA) as described in the Supplementary Information. […]
serum. After that, the reconstituted MTT was added in an amount equal to 10% of the culture medium volume. Cultures were returned to incubator for 2-4 hours depending on cell type and maximum cell density. Incubation times should be consistent when making comparisons. After the incubation period, cultures were removed from incubator and the resulting formazan crystals were dissolved by adding an amount of MTT Solubilization Soluti on [M-8910] equal to the original culture medium volume. Occasionally, especially in dense cultures, pipetting up and down [trituration] may be required to completely dissolve the MTT formazan crystals.
Absorbance was measured spectrophotometrically at a wavelength of 570 nm. The background absorbance of multiwell plates was measured at 690 nm and subtract from the 570 nm […]
2.2. CDK2/Cyclin A2 inhibitory activity
Promega Kinase-Glo Plus luminescence kinase assay protocol was adopted as reported. […]
reaction by adding 20 μl of diluted CDK2/CyclinA2 enzyme to the wells designated “Positive Control” and "Test Inhibitor Control". […] Measure luminescence using the microplate reader. “Blank” value is subtracted from all readings. […]

HepG2 cells = assay: MTT antiproliferative assay, HepG2 cells; assay type: cell-based; details: Homo sapiens, HepG2 HCC cell line, triplicate, read-out: IC50 ± SD HepG2
[1] = tested on: normal human fibroblast cell line (WI-38); assay: MTT cytotoxicity assay, normal human fibroblast cell line WI-38; assay type: cell-based; details: WI-38 normal human fibroblasts, read-out: IC50 ± SD WI-38

Structure (SMILES) | IC50 (HCT116 cells) | IC50 (CDK2/CyclinA2) | IC50 (HepG2 cells) | melting point | IC50 [1]
COC(=O)Cn1c(C)nc2c(cnn2-c2ccccc2)c1=O [Compound 2a] | 19.4 ± 0.86 µM | – | 32.9 ± 1.67 µM | – | –
CCOC(=O)Cn1c(C)nc2c(cnn2-c2ccccc2)c1=O [Compound 2b] | 10.9 ± 0.48 µM | – | 58 ± 2.94 µM | – | –
Cc1nc2c(cnn2-c2ccccc2)c(=O)n1CC(=O)c1ccc(Cl)cc1 [Compound 3a] | 35.9 ± 1.59 µM | – | 26.2 ± 1.33 µM | – | –
Cc1ccc(C(=O)Cn2c(C)nc3c(cnn3-c3ccccc3)c2=O)cc1 [Compound 3b] | 10.8 ± 0.48 µM | – | 1.9 ± 0.1 µM | – | –

Further lines, with some results ahead:

IC50 (HCT116 cells) | IC50 (CDK2/CyclinA2) | IC50 (HepG2 cells) | melting point | Structure (SMILES) | IC50 [1]
1.09 ± 0.05 µM | 0.21 ± 0.01 µM | 0.58 ± 0.03 µM | – | Cc1nc2c(cnn2-c2ccccc2)c(=O)n1CC(=O)Nc1ccc(F)cc1 [Compound 4a] | 58.6 µM
3.38 ± 0.15 µM | 0.96 ± 0.05 µM | 2.57 ± 0.13 µM | – | Cc1nc2c(cnn2-c2ccccc2)c(=O)n1CC(=O)Nc1ccc(Cl)cc1 [Compound 4b] | 48.5 µM
41.2 ± 1.83 µM | – | 16.1 ± 0.81 µM | – | Cc1nc2c(cnn2-c2ccccc2)c(=O)n1CC(=O)Nc1cccc2ccccc12 [Compound 4e] | –
26.4 ± 1.17 µM | – | 87.3 ± 4.42 µM | 220 to 225 °C | COc1cccc(NC(=O)Cn2c(C)nc3c(cnn3-c3ccccc3)c2=O)c1 [Compound 4c] | –
